Data on 2 compounds can be found in PMC5519068 (PLoS ONE, 2017).

Like-named read-outs stand apart in the source and are kept apart here. Bounds are passed on as bounds.

The subject of assay [1] is TF-1 cells transduced with an empty retroviral vector (Control). The assay is described as follows: Inhibitor sensitivity of TF-1 cell populations, CellTiter-Blue, 72 h. The format is cell-based, human. Particulars: Homo sapiens, TF-1; empty vector control, 72 h. As to the method:
(§1) Cells were seeded at a density of 100,000 cells per 1.0 ml in 48-well culture plates. Compounds were added to various concentrations while holding the DMSO concentration constant at 0.1%. Cell viability was assessed 72 hours later using the CellTiter-Blue Cell Viability assay (Promega) according to the manufacturer’s protocol and a SpectraMax Multi-Mode Microplate Reader (Molecular Devices). IC50 values were determined by non-linear regression analysis of concentration-response curves using the GraphPad PRISM software package (version 6.0). Apoptosis was determined using the same cell culture conditions and the Apo-ONE Homogeneous Caspase-3/7 Assay (Promega) and the manufacturer’s protocol.
(§2) For each retroviral transduction, TF-1 cells (1 x 10^6) were suspended in 5 mL of undiluted viral supernatant and plated in one well of a 6-well tissue culture dish. Polybrene (Sigma) was added to a final concentration of 4 μg/mL and the TF-1 cells were centrifuged at 1000 x g for 3 hours to enhance retroviral mediated gene transfer. After centrifugation, the virus was removed and replaced with fresh medium.
(§3) Raw fluorescence data were corrected for background and then normalized to cultures grown in the presence of the DMSO carrier solvent. Each condition was performed in triplicate, and results are presented as the mean of the normalized values ± the SD. The resulting dose-response curves were fitted by non-linear regression analysis for estimation of the IC50 values (see Table 2). […] Fes and Flt3 kinase proteins were then immunoprecipitated from cell lysates followed by immunoblotting with antibodies to phosphotyrosine (pTyr), the Fes activation loop phosphotyrosine (pY713), as well as the Flt3 and Fes proteins.
On the technique in general: Alamar Blue is a resazurin reagent that responds to reducing activity.

Assay [2] relates to TF-1/Flt3-D835Y cells. The assay is described as above. The format is cell-based, human. As to the method: as §1, §2, §3
The test system of assay [3] is TF-1/Flt3-ITD cells. The assay is described as above. The format is cell-based, human. Here is the method: as §1, §2, §3
Assay [4] deals with TF-1 cells expressing Flt3-WT. The description is as above. The format is cell-based. As to the method:
as §1, §2, §3

Assay [5] deals with Flt3-ITD in MV4-11 and MOLM-14 cells. The assay is described as follows: Immunoprecipitation/immunoblot of Flt3 phosphotyrosine content in AML cells. The format is cell-based, human. Particulars: compound at in vitro IC90 for Fes, 16 h (tandutinib: IC90 for Flt3-ITD, 6 h). As to the method:
(§4) AML cells (2.5 x 10^6 in 5 mL) were cultured in the presence of kinase inhibitors or DMSO alone for 6 to 16 hours prior to lysis by sonication in RIPA buffer (50 mM Tris-HCl, pH 7.4, 150 mM NaCl, 1 mM EDTA, 1% Triton X-100, 0.1% SDS, 1% sodium deoxycholate) supplemented with 1 mM sodium orthovanadate, 1 mM sodium fluoride, 5 units/ml Benzonase (Novagen), and SigmaFAST EDTA-free protease inhibitor cocktail (Sigma). Flt3 and Fes were immunoprecipitated from 1 mg of cell lysate with 2 μg of antibody and 25 μL of protein G-Sepharose beads (Life Technologies) overnight at 4°C. Immunoprecipitates were washed three times by resuspension in 1.0 ml of RIPA buffer. Immunoprecipitated proteins were separated by SDS-PAGE, transferred to PVDF membranes and probed with the indicated antibodies followed by alkaline phosphatase-linked secondary antibodies. CDP-Star Western Blot Chemiluminescence Reagent (Perkin-Elmer) was used for detection.
Fes and Flt3 kinase proteins were then immunoprecipitated from cell lysates, followed by immunoblotting with antibodies to phosphotyrosine (pTyr), the Fes activation loop phosphotyrosine (pY713), as well as the Flt3 and Fes proteins.
Background: A western blot detects proteins with antibodies after separation by electrophoresis.

Assay [6] concerns Flt3-ITD in TF-1/Flt3-ITD cells. The assay is described as follows: Immunoprecipitation/immunoblot of Flt3 phosphotyrosine content in TF-1/Flt3-ITD cells. The format is cell-based, human. Particulars: compound at in vitro IC90 for Fes, 16 h (tandutinib: IC90 for Flt3-ITD, 6 h). Here is the method:
as §4, §3

Assay [7] has as its system Fes in TF-1/Flt3-ITD cells. The assay is described as follows: Immunoprecipitation/immunoblot of Fes pY713 in TF-1/Flt3-ITD cells. The format is cell-based, human. Particulars: compound at in vitro IC90 for Fes, 16 h (tandutinib: IC90 for Flt3-ITD, 6 h). Here is the method: as §4, §3
For assay [8], the system named is Flt3-D835Y in TF-1/Flt3-D835Y cells. Kind of assay: Immunoprecipitation/immunoblot of Flt3-D835Y phosphotyrosine content in TF-1/Flt3-D835Y cells. The format is cell-based, human. Particulars: immunoblot, compound at in vitro IC90. As to the method: as §4, §3
For assay [9], the system named is bone marrow mononuclear cells from normal donors. The assay is described as follows: Apoptosis by flow cytometry for cell-surface phosphatidylserine in normal cells (non-specific cytotoxicity). The format is cell-based, human. Particulars: 3 μM; three normal donors. Background: A flow cytometer gives signals particle by particle.
Procedure: Cells were then analyzed on a BD Accuri C6 Flow cytometer and the resulting data were evaluated using the BD CSampler software.
The presence of apoptotic cells was then assayed 48 and 72 h later by flow cytometry for cell-surface phosphatidylserine. […] To assess non-specific cytotoxicity, bone marrow mononuclear cells from three normal donors were cultured and treated with inhibitors under identical conditions, followed by flow cytometry for apoptotic cells.
The target of assay [10] is Flt3. Details: method as in PMID 22520759. Particulars: cited from earlier work.

With `CCN1CCN(Cc2ccc(NC(=O)c3ccc(C)c(Oc4ccnc5[nH]ccc45)c3)cc2C(F)(F)F)CC1` [HG7-92-01], the IC50 – broadly, the midpoint of a concentration-inhibition curve – in [1] is more than 1000 nM; in [2] (Homo sapiens, TF-1, 72 h; read-out: Inhibitor sensitivity of TF-1 Cell Populations (IC50, nM) Flt3-D835Y) it was more than 1000 nM; in [3] (Homo sapiens, TF-1, 72 h; read-out: Inhibitor sensitivity of TF-1 Cell Populations (IC50, nM) Flt3-ITD) it was 29 nM; in [4] (Homo sapiens, TF-1, 72 h; read-out: Inhibitor sensitivity of TF-1 Cell Populations (IC50, nM) Flt3-WT), more than 1000 nM. In addition, the “Activity on TF-1/Flt3-D835Y cell growth” value in [2] (72 h) is listed as “devoid of activity”. Besides, the “Inhibition of Flt3-ITD phosphotyrosine content in MV4-11 and MOLM-14 cells” value in [5] is “inhibited Flt3-ITD and Fes in both cell lines”. Further, in assay [6], the “Inhibition of Flt3-ITD phosphotyrosine content in TF-1/Flt3-ITD cells” value is “inhibited both Flt3-ITD and Fes”. In [7], the “Inhibition of Fes activation loop phosphorylation in TF-1/Flt3-ITD cells” value was “inhibited both Flt3-ITD and Fes”. The “Inhibition of Flt3-D835Y phosphotyrosine content in TF-1/Flt3-D835Y cells” value in assay [8] is listed as “without effect”. Also, in assay [9], the “Increase in apoptosis in normal bone marrow mononuclear cells” value is not above 10%. Further, in assay [10], the “KINOMEscan binding to Flt3” value is “bind to a wider range of kinases (including Flt3)”.
Take `COc1cc(N2CCC(O)CC2)ccc1Nc1nc(Nc2ccccc2S(=O)(=O)C(C)C)c2cn[nH]c2n1` [WZ4-49-1]: the IC50 is more than 3000 nM in assay [1]; 597 nM in assay [2] (Homo sapiens, TF-1, 72 h, read-out: Inhibitor sensitivity of TF-1 Cell Populations (IC50, nM) Flt3-D835Y); 466 nM in assay [3] (Homo sapiens, TF-1, 72 h, read-out: Inhibitor sensitivity of TF-1 Cell Populations (IC50, nM) Flt3-ITD); more than 3000 nM in [4] (Homo sapiens, TF-1, 72 h, read-out: Inhibitor sensitivity of TF-1 Cell Populations (IC50, nM) Flt3-WT). Also, the “Potency in TF-1/Flt3-ITD cells compared to the Flt3-ITD+ AML cells” value in assay [3] (growth inhibition) is listed as “about two-fold higher”. Also, the “Inhibition of Flt3-ITD phosphotyrosine content in MV4-11 and MOLM-14 cells” value in assay [5] was “only inhibited Fes”. Also, the “Inhibition of Flt3-ITD phosphotyrosine content in TF-1/Flt3-ITD cells” value in [6] is on record as “only inhibited the activity of Fes”. Besides, the “Inhibition of Fes activation loop phosphorylation in TF-1/Flt3-ITD cells” value in assay [7] was “only inhibited the activity of Fes”. The “Inhibition of Flt3-D835Y phosphotyrosine content in TF-1/Flt3-D835Y cells” value in assay [8] is given as “complete inhibition”.
